These results are taken from US6607893B2, “Diacylglycerol acyltransferase (DGAT) assay” (Warner-Lambert Company, priority 2000, dated 2003).

Experiment [1] has as its system diacylglycerol acyltransferase (DGAT). The experiment can be described thus: DGAT enzyme assay, rat liver microsomes, [14C]triglyceride by TLC or 1-step extraction. Particulars: for Production of [14C]TAG: 0.8% solvent in reaction. (In general: Liver microsomes are vesicles of endoplasmic reticulum, rich in cytochrome P450 enzymes.)
Protocol: Rats were euthanized using CO2 affixation; their livers were immediately removed and placed in ice-cold microsome buffer (MC buffer) consisting of 125 mM sucrose, 3.0 mM imidazole, pH 7.4. Livers were cut into approximately 10 pieces, placed into 20 mL of ice cold MC buffer per liver and homogenized on ice in a glass Dounce power homogenizer using 10 up-and-down strokes. Homogenates were centrifuged at 1700 rpm in a Beckman JA-14 rotor for 10 minutes at 4° C. The supernatant was removed and placed on ice. The pellet was resuspended in 4.0 mL MC buffer per liver, rehomogenized as described above, and centrifuged at 1700 rpm in a Beckman JA-14 rotor for 10 minutes at 4° C. This supernatant was combined with the previous supernatant and centrifuged at 13,000 rpm in a Beckman JA-14 rotor for 20 minutes at 4° C. The supernatant was transferred to new tubes on ice, and the pellet was discarded. The supernate was centrifuged at 35,000 rpm in a Beckman Ti-70 rotor for 60 minutes at 4° C., and the resulting pellet, containing microsomal membranes, was resuspended in ice cold MC buffer using 17 strokes of a glass Dounce power homogenizer. Microsomal protein concentrations were determined by the Dc Protein Assay, and BSA was used to generate the standard curve. Microsomes were diluted to final protein concentration of 10 to 20 mg/mL. Microsomes were aliquoted into 1.0-mL tubes and stored in a liquid N2 cryofreezer.
DGAT Assay Buffer (DAB): 0.25 M sucrose, 1.0 mM EDTA, pH 8.0, 150 mM Tris-HCl, pH 7.4, and 1.25 mg/mL fatty acid free BSA.
Compounds were dissolved in DMSO and diluted to make 10× with DAB (10×compound) and kept at room temperature until the assay was performed.
Frozen aliquots of microsomes (10-20 mg/mL total protein) were thawed on ice and diluted to make a 5× working stock at the indicated concentrations with MC buffer and stored on ice until use.
The DGAT assay reaction was performed as follows: 5 μL of 10× compound was added to Perkin Elmer thin-walled reaction tubes followed by 35 μL of DGAT substrate mixture and vortexed. The reaction was started by the addition of 10 μL of the diluted 5× microsomes, vortexed, and incubated in a Perkin Elmer 9600 thermocycler for the indicated times and temperatures.
Reactions were stopped by the addition of 10 μL of 0.75N HCl. Samples were then spotted onto TLC plates and dried in a gravity convection oven at 70° C. for 30 minutes. Plates were developed in a 27×7.5×26 cm TLC chamber for 60 minutes at room temperature in 102 mL of isooctane:ethyl ether:acetic acid (75:25:2) for triglyceride determination. TLC plates were removed from the chamber, dried in a gravity convection oven at 70° C. for 30 minutes, wrapped in cellophane, and exposed to phosphorimager plates overnight. Phosphorimager plates were scanned on a phosphorimager and images were analyzed using ImageQuant software. A [^14C]glycerol trioleate standard was titrated onto TLC plates for mass determinations. All statistics were performed using Microsoft Excel's analysis software using a two-tailed t-test for means.
Reactions were stopped by the addition of 150 μL of AESSM followed by the addition of 300 μL of n-heptane. The mixture is pipetted 5× to mix and allowed to separate for 5 minutes at room temperature. The entire top phase, n-heptane phase, is removed to new tubes and spotted onto silica TLC plates and processed as described above (see TLC method) or placed into 5-mL scintillation vials containing scintillation cocktail and counted.
Experiment [2] addresses T1, diacylglycerol acyltransferase (DGAT).
T1 construct: IC50, DGAT activity; other: Group 1 rat liver microsome preparation; 1-Step/Scintillation; 37° C., 5 minutes; 1-Step/TLC; TLC; other: Group 2 rat liver microsome preparation; 1-Step/Scintillation
The experiment can be described thus: 96-well DGAT mass screen assay. Type of experiment: biochemical, rat. Particulars: 22° C., 60 minutes. On the procedure:
Plates are loaded onto the robot carousel. […] The robot arm transfers the plate to multidrop 2 for the addition of 20 μL of diluted microsomes and shaken for 1.0 minute at room temperature. The robot arm transfers the plate back to the carousel where it incubates for 1.0 hour at room temperature. The robot arm transfers the plate to multidrop 3 for the addition of 150 μL of AESSM. The robot arm transfers the plate to the multimek to begin the extraction. The reaction volume is transferred to a 96-[…] polypropylene extraction plate on the multimek. The tips are washed 3×100 μL of DI H2O in a reagent reservoir with a continuous flow of DI H2O. The multimek then washes out the 96-well reaction plate with 3×100 μL of n-heptane and transfers the volume to the extraction plate. The multimek mixes the volume in the extraction plate 6×100 μL, and the plate sits for 10 seconds. The tips are washed 3×100 μL of DI H2O in a continuous flow reagent reservoir. One hundred microliters of the top n-heptane phase is transferred to a Flash plate. The robot arm transfers the Flash plate to a carousel fitted with a fume hood, which allows the n-heptane to evaporate for a minimum of 6 hours. The plates are transferred to a plate sealer to be sealed, transferred to the top count scintillation counter, and counted for 1.0 minute. Data are collected and reported to the Trillium based compound management system.

Broadly, the IC50 is the midpoint of a concentration-inhibition curve.

For the molecule `CCO` [95% EtOH, ethanol], in experiment [1] (0.5% ethanol), the “DGAT activity increase above control” value was 121%. Besides, the “Production of [14C]TAG” value in experiment [1] is 104±0.4 pmoles [14C]TAG/mg microbe pro. In addition, in experiment [1] (4.0% ethanol), the “DGAT activity increase above controls” value is listed as 180%.

Consider `CC(C)=O` [Acetone, acetone], for which the “DGAT activity increase above controls” value in experiment [1] (10.0% acetone) is given as 394%.

Turning to `ClC(Cl)Cl` [Chloroform, chloroform], in experiment [1] (0.35% chloroform), the “DGAT activity, % of control” value came to 955%.

Regarding `C[S+](C)[O-]` [DMSO], the “effect on DGAT activity” value in experiment [1] (37° C. and 22° C.) is listed as “decreases DGAT activity in a linear manner”. Besides, the “DMSO concentration at which DGAT assay showed significant changes” value in experiment [1] (37° C. and 22° C., p<0.05) was 4.5%.

As to `Cc1ccc2c(c1)Oc1ccc(NC(=O)c3ccc(O)cc3)cc1C(=O)N2C` [N-(7,10-dimethyl-11-oxo-10,11-dihydro-dibenzo[b,f][1,4]oxazepin-2-yl)-4-hydroxy-benzamide], the 50% inhibitory concentration (IC50) worked out at 1700 nM in experiment [2] (manually extracted samples); 1500 nM in experiment [2] (plate 1, 96-well mass screen extraction); 1270 nM in experiment [2] (plate 2, 96-well mass screen extraction); 1660 nM in experiment [1] (read-out: IC50, DGAT activity, Group 1 rat liver microsome preparation, 1-Step/Scintillation, 37° C., 5 minutes); 950 nM in experiment [1] (read-out: IC50, DGAT activity, Group 1 rat liver microsome preparation, 1-Step/TLC, 37° C., 5 minutes); 1070 nM in experiment [1] (read-out: IC50, DGAT activity, Group 1 rat liver microsome preparation, TLC, 37° C., 5 minutes). The concentration for half-maximal inhibition (IC50) in experiment [1] (read-out: IC50, DGAT activity, Group 2 rat liver microsome preparation, 1-Step/Scintillation, 37° C., 5 minutes) is 1120 nM; in experiment [1] (read-out: IC50, DGAT activity, Group 2 rat liver microsome preparation, 1-Step/TLC, 37° C., 5 minutes), 1140 nM; in experiment [1] (read-out: IC50, DGAT activity, Group 2 rat liver microsome preparation, TLC, 37° C., 5 minutes), 1520 nM; in experiment [1] (read-out: IC50, DGAT activity, Group 3 rat liver microsome preparation, 1-Step/Scintillation, 37° C., 5 minutes), 2050 nM; in experiment [1] (read-out: IC50, DGAT activity, Group 3 rat liver microsome preparation, 1-Step/TLC, 37° C., 5 minutes) it was 2300 nM; in experiment [1] (read-out: IC50, DGAT activity, Group 3 rat liver microsome preparation, TLC, 37° C., 5 minutes), 1740 nM. Besides, the IC50 in experiment [1] (read-out: IC50, DGAT activity, Group 4 rat liver microsome preparation, 1-Step/Scintillation, 37° C., 5 minutes) turned out to be 1100 nM; in experiment [1] (read-out: IC50, DGAT activity, Group 4 rat liver microsome preparation, 1-Step/TLC, 37° C., 5 minutes), 730 nM; in experiment [1] (read-out: IC50, DGAT activity, Group 4 rat liver microsome preparation, TLC, 37° C., 5 minutes), 910 nM; in experiment [1] (read-out: IC50, DGAT inhibition, 0.8% ethanol and TLC), 2600 nM; in experiment [1] (read-out: IC50, DGAT inhibition, 0.8% ethanol extracted (1-step) and run on TLC) it was 2400 nM; in experiment [1] (read-out: IC50, DGAT inhibition, […] acetone:chloroform (8:2) and TLC), 2000 nM. In experiment [1] (read-out: IC50, DGAT inhibition, […] acetone:chloroform (8:2) extracted (1-step) and run on TLC), the IC50 was 2500 nM.

`CCCCCCCC/C=C\CCCCCCCC(=O)OCCOCC(OCCO)C1OCC(OCCO)C1OCCO` (stereo not drawn) [Tween 80]: in experiment [1], the “Production of [14C]TAG” value was 20±0.02 pmoles [14C]TAG/mg microbe pro.
